US20160338966A1, “Multimicroparticulate pharmaceutical forms foe oral administration” (FLAMEL IRELAND LIMITED, priority 2006, published 2016)

Assay: behavior of agents D in water and in ethanol/water solution 40/60 v/v
Type: physicochemical
Source text: Different compounds D are introduced into ajar containing either water (on the left in the Figures) or an ethanol/water solution in a ratio of 40/60 v/v (right jar in the Figures).

Row | Substance | solubility in water and in ethanol/water | solubilization rate in water versus water/ethanol mixture
1 | guar gum | soluble in water but not in the water/ethanol mixture | 
2 | hydroxypropyl methyl cellulose [hypromellose] |  | higher in water than in the water/ethanol mixture
